Measurements taken from ChEMBL document CHEMBL1649267, “Molecular epidemiology and mechanisms of carbapenem resistance in Pseudomonas aeruginosa” (2009).
Converted amounts (≈) assume the structure as drawn.

Legend:
Pseudomonas aeruginosa [1] = assay type: functional; settings: isolate Paebeta-24
Pseudomonas aeruginosa [2] = assay type: functional; settings: isolate Paebeta-25
Pseudomonas aeruginosa [3] = assay type: functional; settings: isolate Paebeta-26
Pseudomonas aeruginosa [4] = assay type: functional; settings: isolate Paebeta-27
Pseudomonas aeruginosa [5] = assay type: functional; settings: isolate Paebeta-28
Pseudomonas aeruginosa [6] = assay type: functional; settings: isolate Paebeta-29
Pseudomonas aeruginosa [7] = assay type: functional; settings: isolate Paebeta-30
Pseudomonas aeruginosa [8] = assay type: functional; settings: isolate Paebeta-22
Pseudomonas aeruginosa [9] = assay type: functional; settings: isolate Paebeta-21
Pseudomonas aeruginosa [10] = assay type: functional; settings: isolate Paebeta-20
Pseudomonas aeruginosa [11] = assay type: functional; settings: isolate Paebeta-19
Pseudomonas aeruginosa [12] = assay type: functional; settings: isolate Paebeta-18
Pseudomonas aeruginosa [13] = assay type: functional; settings: isolate Paebeta-17
Pseudomonas aeruginosa [14] = assay type: functional; settings: isolate Paebeta-16
Pseudomonas aeruginosa [15] = assay type: functional; settings: isolate Paebeta-15
Pseudomonas aeruginosa [16] = assay type: functional; settings: isolate Paebeta-14
Pseudomonas aeruginosa [17] = assay type: functional; settings: isolate Paebeta-13
Pseudomonas aeruginosa [18] = assay type: functional; settings: isolate Paebeta-12
Pseudomonas aeruginosa [19] = assay type: functional; settings: isolate Paebeta-11
Pseudomonas aeruginosa [20] = assay type: functional; settings: isolate Paebeta-10
Pseudomonas aeruginosa [21] = assay type: functional; settings: isolate Paebeta-09
Pseudomonas aeruginosa [22] = assay type: functional; settings: isolate Paebeta-08
Pseudomonas aeruginosa [23] = assay type: functional; settings: isolate Paebeta-07
Pseudomonas aeruginosa [24] = assay type: functional; settings: isolate Paebeta-06
Pseudomonas aeruginosa [25] = assay type: functional; settings: isolate Paebeta-05
Pseudomonas aeruginosa [26] = assay type: functional; settings: isolate Paebeta-04
Pseudomonas aeruginosa [27] = assay type: functional; settings: isolate Paebeta-03
Pseudomonas aeruginosa [28] = assay type: functional; settings: isolate Paebeta-02
Pseudomonas aeruginosa [29] = assay type: functional; settings: isolate Paebeta-01
Pseudomonas aeruginosa [30] = assay type: functional; settings: isolate Paebeta-31
Pseudomonas aeruginosa [31] = assay type: functional; settings: isolate Paebeta-32
Pseudomonas aeruginosa [32] = assay type: functional; settings: isolate Paebeta-01; remark: listed apart in the source
Pseudomonas aeruginosa [33] = assay type: functional; settings: isolate Paebeta-02; remark: listed apart in the source
Pseudomonas aeruginosa [34] = assay type: functional; settings: isolate Paebeta-03; remark: listed apart in the source
Pseudomonas aeruginosa [35] = assay type: functional; settings: isolate Paebeta-04; remark: listed apart in the source
Pseudomonas aeruginosa [36] = assay type: functional; settings: isolate Paebeta-05; remark: listed apart in the source
Pseudomonas aeruginosa [37] = assay type: functional; settings: isolate Paebeta-06; remark: listed apart in the source
Pseudomonas aeruginosa [38] = assay type: functional; settings: isolate Paebeta-07; remark: listed apart in the source
Pseudomonas aeruginosa [39] = assay type: functional; settings: isolate Paebeta-08; remark: listed apart in the source
Pseudomonas aeruginosa [40] = assay type: functional; settings: isolate Paebeta-09; remark: listed apart in the source
Pseudomonas aeruginosa [41] = assay type: functional; settings: isolate Paebeta-10; remark: listed apart in the source
Pseudomonas aeruginosa [42] = assay type: functional; settings: isolate Paebeta-11; remark: listed apart in the source
Pseudomonas aeruginosa [43] = assay type: functional; settings: isolate Paebeta-13; remark: listed apart in the source
Pseudomonas aeruginosa [44] = assay type: functional; settings: isolate Paebeta-14; remark: listed apart in the source
Pseudomonas aeruginosa [45] = assay type: functional; settings: isolate Paebeta-15; remark: listed apart in the source
Pseudomonas aeruginosa [46] = assay type: functional; settings: isolate Paebeta-16; remark: listed apart in the source
Pseudomonas aeruginosa [47] = assay type: functional; settings: isolate Paebeta-17; remark: listed apart in the source
Pseudomonas aeruginosa [48] = assay type: functional; settings: isolate Paebeta-18; remark: listed apart in the source
Pseudomonas aeruginosa [49] = assay type: functional; settings: isolate Paebeta-19; remark: listed apart in the source
Pseudomonas aeruginosa [50] = assay type: functional; settings: isolate Paebeta-20; remark: listed apart in the source
Pseudomonas aeruginosa [51] = assay type: functional; settings: isolate Paebeta-21; remark: listed apart in the source
Pseudomonas aeruginosa [52] = assay type: functional; settings: isolate Paebeta-22; remark: listed apart in the source
Pseudomonas aeruginosa [53] = assay type: functional; settings: isolate Paebeta-23
Pseudomonas aeruginosa [54] = assay type: functional; settings: isolate Paebeta-24; remark: listed apart in the source
Pseudomonas aeruginosa [55] = assay type: functional; settings: isolate Paebeta-25; remark: listed apart in the source
Pseudomonas aeruginosa [56] = assay type: functional; settings: isolate Paebeta-26; remark: listed apart in the source
Pseudomonas aeruginosa [57] = assay type: functional; settings: isolate Paebeta-27; remark: listed apart in the source
Pseudomonas aeruginosa [58] = assay type: functional; settings: isolate Paebeta-28; remark: listed apart in the source
Pseudomonas aeruginosa [59] = assay type: functional; settings: isolate Paebeta-29; remark: listed apart in the source
Pseudomonas aeruginosa [60] = assay type: functional; settings: isolate Paebeta-30; remark: listed apart in the source
Pseudomonas aeruginosa [61] = assay type: functional; settings: isolate Paebeta-31; remark: listed apart in the source
Pseudomonas aeruginosa [62] = assay type: functional; settings: isolate Paebeta-32; remark: listed apart in the source
Pseudomonas aeruginosa [63] = assay type: functional; settings: isolate Paebeta-23; remark: listed apart in the source
Pseudomonas aeruginosa [64] = assay: microbe, parasite or virus in culture; settings: isolate Paebeta-12
Description: Antibacterial activity against mexB, mexY and mexD expressing Pseudomonas aeruginosa isolate Paebeta-12 harboring A residue at 105 position in PDC- 2 and polymorphic OprD gene by Etest method in presence of cloxacillin

SMILES: CC(C)(O/N=C(\C(=O)N[C@@H]1C(=O)N2C(C(=O)[O-])=C(C[n+]3ccccc3)CS[C@H]12)c1csc(N)n1)C(=O)O [CEFTAZIDIME]
- MIC (Pseudomonas aeruginosa [1]): 64 µg/mL (≈ 117 µM)
- MIC (Pseudomonas aeruginosa [2]): 32 µg/mL (≈ 58.5 µM)
- MIC (Pseudomonas aeruginosa [3]): 32 µg/mL (≈ 58.5 µM)
- MIC (Pseudomonas aeruginosa [4]): 16 µg/mL (≈ 29.3 µM)
- MIC (Pseudomonas aeruginosa [5]): 16 µg/mL (≈ 29.3 µM)
- MIC (Pseudomonas aeruginosa [6]): 8 µg/mL (≈ 14.6 µM)
- MIC (Pseudomonas aeruginosa [7]): 8 µg/mL (≈ 14.6 µM)
- MIC (Pseudomonas aeruginosa [8]): 16 µg/mL (≈ 29.3 µM)
- MIC (Pseudomonas aeruginosa [9]): 32 µg/mL (≈ 58.5 µM)
- MIC (Pseudomonas aeruginosa [10]): 8 µg/mL (≈ 14.6 µM)
- MIC (Pseudomonas aeruginosa [11]): 8 µg/mL (≈ 14.6 µM)
- MIC (Pseudomonas aeruginosa [12]): 128 µg/mL (≈ 234 µM)
- MIC (Pseudomonas aeruginosa [13]): 64 µg/mL (≈ 117 µM)
- MIC (Pseudomonas aeruginosa [14]): 32 µg/mL (≈ 58.5 µM)
- MIC (Pseudomonas aeruginosa [15]): 32 µg/mL (≈ 58.5 µM)
- MIC (Pseudomonas aeruginosa [16]): 16 µg/mL (≈ 29.3 µM)
- MIC (Pseudomonas aeruginosa [17]): 4 µg/mL (≈ 7.32 µM)
- MIC (Pseudomonas aeruginosa [18]): 16 µg/mL (≈ 29.3 µM)
- MIC (Pseudomonas aeruginosa [19]): 16 µg/mL (≈ 29.3 µM)
- MIC (Pseudomonas aeruginosa [20]): 16 µg/mL (≈ 29.3 µM)
- MIC (Pseudomonas aeruginosa [21]): 16 µg/mL (≈ 29.3 µM)
- MIC (Pseudomonas aeruginosa [22]): 16 µg/mL (≈ 29.3 µM)
- MIC (Pseudomonas aeruginosa [23]): 16 µg/mL (≈ 29.3 µM)
- MIC (Pseudomonas aeruginosa [24]): 16 µg/mL (≈ 29.3 µM)
- MIC (Pseudomonas aeruginosa [25]): 32 µg/mL (≈ 58.5 µM)
- MIC (Pseudomonas aeruginosa [26]): 32 µg/mL (≈ 58.5 µM)
- MIC (Pseudomonas aeruginosa [27]): 16 µg/mL (≈ 29.3 µM)
- MIC (Pseudomonas aeruginosa [28]): 8 µg/mL (≈ 14.6 µM)
- MIC (Pseudomonas aeruginosa [29]): 8 µg/mL (≈ 14.6 µM)
- MIC (Pseudomonas aeruginosa [30]): 32 µg/mL (≈ 58.5 µM)
- MIC (Pseudomonas aeruginosa [31]): 32 µg/mL (≈ 58.5 µM)
- MIC (Pseudomonas aeruginosa [32]): 8 µg/mL (≈ 14.6 µM)
- MIC (Pseudomonas aeruginosa [33]): 8 µg/mL (≈ 14.6 µM)
- MIC (Pseudomonas aeruginosa [34]): 2 µg/mL (≈ 3.66 µM)
- MIC (Pseudomonas aeruginosa [35]): 4 µg/mL (≈ 7.32 µM)
- MIC (Pseudomonas aeruginosa [36]): 32 µg/mL (≈ 58.5 µM)
- MIC (Pseudomonas aeruginosa [37]): 2 µg/mL (≈ 3.66 µM)
- MIC (Pseudomonas aeruginosa [38]): 2 µg/mL (≈ 3.66 µM)
- MIC (Pseudomonas aeruginosa [39]): 2 µg/mL (≈ 3.66 µM)
- MIC (Pseudomonas aeruginosa [40]): 2 µg/mL (≈ 3.66 µM)
- MIC (Pseudomonas aeruginosa [41]): 2 µg/mL (≈ 3.66 µM)
- MIC (Pseudomonas aeruginosa [42]): 2 µg/mL (≈ 3.66 µM)
- MIC (Pseudomonas aeruginosa [43]): 0.12 µg/mL (≈ 0.22 µM)
- MIC (Pseudomonas aeruginosa [44]): 2 µg/mL (≈ 3.66 µM)
- MIC (Pseudomonas aeruginosa [45]): 8 µg/mL (≈ 14.6 µM)
- MIC (Pseudomonas aeruginosa [46]): 4 µg/mL (≈ 7.32 µM)
- MIC (Pseudomonas aeruginosa [47]): 8 µg/mL (≈ 14.6 µM)
- MIC (Pseudomonas aeruginosa [48]): 32 µg/mL (≈ 58.5 µM)
- MIC (Pseudomonas aeruginosa [49]): 4 µg/mL (≈ 7.32 µM)
- MIC (Pseudomonas aeruginosa [50]): 1 µg/mL (≈ 1.83 µM)
- MIC (Pseudomonas aeruginosa [51]): 4 µg/mL (≈ 7.32 µM)
- MIC (Pseudomonas aeruginosa [52]): 1 µg/mL (≈ 1.83 µM)
- MIC (Pseudomonas aeruginosa [53]): 8 µg/mL (≈ 14.6 µM)
- MIC (Pseudomonas aeruginosa [54]): 16 µg/mL (≈ 29.3 µM)
- MIC (Pseudomonas aeruginosa [55]): 4 µg/mL (≈ 7.32 µM)
- MIC (Pseudomonas aeruginosa [56]): 4 µg/mL (≈ 7.32 µM)
- MIC (Pseudomonas aeruginosa [57]): 4 µg/mL (≈ 7.32 µM)
- MIC (Pseudomonas aeruginosa [58]): 2 µg/mL (≈ 3.66 µM)
- MIC (Pseudomonas aeruginosa [59]): 8 µg/mL (≈ 14.6 µM)
- MIC (Pseudomonas aeruginosa [60]): 8 µg/mL (≈ 14.6 µM)
- MIC (Pseudomonas aeruginosa [61]): 16 µg/mL (≈ 29.3 µM)
- MIC (Pseudomonas aeruginosa [62]): 8 µg/mL (≈ 14.6 µM)
- MIC (Pseudomonas aeruginosa [63]): 64 µg/mL (≈ 117 µM)
- MIC (Pseudomonas aeruginosa [64]): 1 µg/mL (≈ 1.83 µM)
